# System: Hela pLuc 705 cells
# Experiment: Toxicity measurements (MTS cell proliferation assay)
# Format: cell-based
# Details: peptide:2'-OMe ON complexes, 200 nM ON, 24 hours, most effective concentrations (FIG. 6)
# Procedure: Cell proliferation was studied with CellTiter 96® A Queous Non-Radioactive Cell Proliferation Assay (MTS) according to the manufacturer's instructions. Briefly, 10000 Hela pLuc 705 cells per well were seeded 1 day prior to experiment on a 96-well plate in complete DMEM. Cells were treated with peptide: 2′-OMe ON complexes at four different molar ratios (5:1, 7:1, 10:1 and 20:1) for 4 hours in serum-free medium, followed by the addition of 10% serum containing medium and incubated for additional 20 hours. MTS was added according to the manufacturer's general protocol (Promega Biotech AB, Sweden). The conversion of MTS into aqueous, soluble formazan is accomplished by dehydrogenase enzymes found in metabolically active cells. The absorbance of formazan product was measured at 490 nm, which is directly proportional to the number of living cells in culture. Absorbance was measured on Tecan Sunrise microplate absorbance reader (Tecan Group Ltd., Switzerland) and the percentage of viable cells was determined using GraphPad Prism software 5.0 (Graphpad Software, CA, USA).
row,Structure (SMILES),toxicity (cell viability by MTS)
1,"CCCCCCCCCCCCCCCCCC(=O)N[C@@H](C)C(=O)NCC(=O)N[C@@H](Cc1ccc(OP(=O)(O)O)cc1)C(=O)N[C@@H](CC(C)C)C(=O)N[C@@H](CC(C)C)C(=O)NCC(=O)N[C@@H](CCCCN)C(=O)N[C@H](C(=O)N[C@@H](CC(N)=O)C(=O)N[C@@H](CC(C)C)C(=O)N[C@@H](CCCCN)C(=O)N[C@@H](C)C(=O)N[C@@H](CC(C)C)C(=O)N[C@@H](C)C(=O)N[C@@H](C)C(=O)N[C@@H](CC(C)C)C(=O)N[C@@H](C)C(=O)N[C@@H](CCCCN)C(=O)N[C@@H](CCCCN)C(=O)N[C@H](C(=O)N[C@@H](CC(C)C)C(N)=O)[C@@H](C)CC)[C@@H](C)O [NickFect 1, Stearyl-AGY(PO3)LLGKTNLKALAALAKKIL-NH2]",not toxic
2,"CCCCCCCCCCCCCCCCCC(=O)N[C@@H](C)C(=O)NCC(=O)N[C@@H](Cc1ccc(O)cc1)C(=O)N[C@@H](CC(C)C)C(=O)N[C@@H](CC(C)C)C(=O)NCC(=O)N[C@@H](CCCCN)C(=O)N[C@H](C(=O)N[C@@H](CC(N)=O)C(=O)N[C@@H](CC(C)C)C(=O)N[C@@H](CCCCN)C(=O)N[C@@H](C)C(=O)N[C@@H](CC(C)C)C(=O)N[C@@H](C)C(=O)N[C@@H](C)C(=O)N[C@@H](CC(C)C)C(=O)N[C@@H](C)C(=O)N[C@@H](CCCCN)C(=O)N[C@@H](CCCCN)C(=O)N[C@H](C(=O)N[C@@H](CC(C)C)C(N)=O)[C@@H](C)CC)[C@@H](C)OP(=O)(O)O [NickFect 2, Stearyl-AGYLLGKT(PO3)NLKALAALAKKIL-NH2]",not toxic

# — patent US20140038281A1, “SYSTEM FOR CARGO DELIVERY INTO THE CELLS” (CEPEP III AB, priority 2011, published 2014)
